Literature values in patent US20090005340A1, “Bioactive Agents Produced By Submerged Cultivation of a Basidiomycete Cell” (MediMush A/S, priority 2005, published 2009).

Test system: cytochrome P450s (CYPs)

- expression of cytochrome P450s (CYPs): suppress the expression
Substance: Lentinan
